Reference: US20250129103A1, “METHODS FOR TREATMENT OF CANCER” (Frontier Medicines Corporation, priority 2022, published 2025)
In brackets after ≈: the same amount, converted by molar mass.

Assays:
[1] = Determination of kinetic solubility (pH 7.4); format: physicochemical; conditions: phosphate buffer, pH 7.4, aqueous buffer, kinetic from dmso stock, 50 mM phosphate buffer pH 7.4, read-out: Ksol, pH 7.4
Outline: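 Sample mixed with 50 mM phosphate buffer, pH 7.4, vortexed, then shaken 2 h at room temperature and centrifuged. Filtrate analysed by HPLC-UV and LC-MS/MS, with solubility read from peak areas against a standard calibration curve.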

[2] = Determination of logD (1-octanol / phosphate buffer pH 7.4); format: physicochemical; conditions: 1-octanol/phosphate buffer, pH 7.4, pH 7.4, 1-octanol/phosphate buffer; read-out: Log D, pH 7.4
Outline: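 Shake-flask partition between 1-octanol and 100 mM phosphate buffer pH 7.4, each phase presaturated with the other overnight. Tubes shaken 1 h at 800 rpm, room temperature, then centrifuged. Both phases quantified by LCMS and logD calculated from the ratio.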

[3] = target: KRAS G12C (GMPPNP-loaded) and PI3Ka (Ras-binding domain) interaction (Homo sapiens (Human), UniProt P01116, C118S/C51S/C80L/G12C); assay: Inhibition of KRAS G12C and PI3Ka binding (AlphaScreen); conditions: KRAS G12C loaded with GMPPNP, PI3Ka RBD, 2 hours preincubation; read-out: PI3K RBD K-Ras IC50
Chain of KRAS G12C (GMPPNP-loaded) and PI3Ka (Ras-binding domain) interaction (P01116 other isoform, or with tags, fused parts or gaps G12C/C51S/C80L/C118S): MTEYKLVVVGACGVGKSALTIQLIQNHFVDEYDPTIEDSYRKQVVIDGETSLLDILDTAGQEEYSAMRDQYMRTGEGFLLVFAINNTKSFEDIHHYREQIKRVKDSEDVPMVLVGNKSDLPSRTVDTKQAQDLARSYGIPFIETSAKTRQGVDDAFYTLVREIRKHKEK
Outline: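 Biotin-AviTag Cys-light KRAS G12C (aa 1-169, C51S/C80L/C118S), GMPPNP-loaded, 1.5 nM, preincubated 2 h with compound, then His-tagged PI3Ka RBD (aa 157-300, 100 nM) plus AlphaScreen beads added for 60-90 min, RT. Buffer Hepes pH 7.4, 10 μM GMPPNP, 2% DMSO; 10-point 1:3 from 50 μM; 4-parameter IC50.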

[4] = target: KRAS G12C (GMPPNP-loaded) and cRAF (Ras-binding domain) interaction (Homo sapiens (Human), UniProt P01116, C118S/C51S/C80L/G12C); assay: Inhibition of KRAS G12C and cRAF binding (AlphaScreen); conditions: KRAS G12C loaded with GMPPNP, cRaf RBD, 2 hours preincubation; read-out: Raf-1 RBD K-Ras IC50
Chain of KRAS G12C (GMPPNP-loaded) and cRAF (Ras-binding domain) interaction (P01116 other isoform, or with tags, fused parts or gaps G12C/C51S/C80L/C118S): as above
Outline: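 GMPPNP-loaded KRAS G12C in 25 mM Hepes pH 7.4, 150 mM NaCl, 5 mM MgCl2, 0.01% Triton X-100, 10 μM GMPPNP, 2% DMSO, preincubated with compound 2 h at room temperature. cRAF RBD plus AlphaScreen beads then added for 60-90 min; signal read at 570 nm.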

Row | SMILES | solubility kinetic at 2 h [1] | logD [2] | IC50 [3] | IC50 [4]
1 | CC(C)c1noc(/C=C/C(=O)N2CCN(c3nc(OCC45CCCN4CCC5)nc4c3CNC(c3cccc5cccc(Cl)c35)C4F)C[C@@H]2CC#N)n1 (stereo partly shown) [Compound 124] | 0.23 µg/mL (≈ 0.311 µM) | 4.21 | 10 to 100 nM | 10 to 100 nM
2 | CC(C)c1noc(/C=C/C(=O)N2CCN(c3nc(OCC45CCCN4CCC5)nc4c3CCN(c3cccc5ccc(F)c(Cl)c35)C4)C[C@@H]2CC#N)n1 [Compound 126] | 0.01 µg/mL (≈ 0.0135 µM) | 4.24 | 10 to 100 nM | 10 to 100 nM
3 | CC(C)c1noc(/C=C/C(=O)N2CCN(c3nc(OC[C@@]45CCCN4C[C@H](F)C5)nc4c3CCN(c3cccc5ccc(F)c(Cl)c35)C4)C[C@@H]2CC#N)n1 [Compound 128] | 0.01 µg/mL (≈ 0.0132 µM) | 4.56 | 10 to 100 nM | 10 to 100 nM
4 | CC(C)c1noc(/C=C/C(=O)N2CCN(c3nc(OC[C@]45CCCN4C[C@H](F)C5)nc4c3CCN(c3cccc5ccc(F)c(Cl)c35)C4)C[C@@H]2CC#N)n1 [Compound 131] | 0.01 µg/mL (≈ 0.0132 µM) | 4.96 | 10 to 100 nM | 10 to 100 nM
5 | Cc1cc(N)nc([C@@H]2Cc3nc(OC[C@@]45CCCN4C[C@H](F)C5)nc(N4CCN(C(=O)/C=C/c5nc([C@H]6C[C@@H]6F)no5)[C@@H](CC#N)C4)c3C[C@H]2C)c1C(F)(F)F [Compound 136] | 0.02 µg/mL (≈ 0.0255 µM) | 4.37 | < 10 nM | < 10 nM
6 | Cc1nsc(/C=C/C(=O)N2CCN(c3nc(OCC45CCCN4CCC5)nc4c(F)c(-c5cccc6cccc(Cl)c56)ncc34)C[C@@H]2CC#N)n1 [Compound 143] | 87.8 µg/mL (≈ 121 µM) | 2.39 | < 10 nM | < 10 nM
7 | Cc1nccc(/C=C/C(=O)N2CCN(c3nc(OC[C@@]45CCCN4C[C@H](F)C5)nc4c(F)c(-c5cccc6ccc(F)c(Cl)c56)ncc34)C[C@@H]2CC#N)n1 [Compound 147] | 4.93 µg/mL (≈ 6.54 µM) | 3.64 | < 10 nM | < 10 nM
8 | N#CC[C@H]1CN(c2nc(OC[C@@]34CCCN3C[C@H](F)C4)nc3c(F)c(-c4cccc5cccc(Cl)c45)ncc23)CCN1C(=O)/C=C/c1ccnc(C2CC2)n1 [Compound 154] | 0.01 µg/mL (≈ 0.0131 µM) | 4.36 | < 10 nM | < 10 nM
9 | Cc1nsc(/C=C/C(=O)N2CCN(c3nc(OCC45CCCN4CCC5)nc4c(F)c(-c5cccc6ccc(F)c(Cl)c56)ncc34)C[C@@H]2CC#N)n1 [Compound 156] | 84.5 µg/mL (≈ 114 µM) | 2.78 | < 10 nM | < 10 nM
10 | N#CC[C@H]1CN(c2nc(OC[C@@]34CCCN3C[C@H](F)C4)nc3c(F)c(-c4cccc5ccc(F)c(Cl)c45)ncc23)CCN1C(=O)/C=C/CN1CC2(COC2)C1 [Compound 161] | 87.7 µg/mL (≈ 113 µM) | 2.75 | < 10 nM | < 10 nM
11 | N#CC[C@H]1CN(c2nc(OCC34CCCN3CCC4)nc3c2CCN(c2cccc4cccc(Cl)c24)C3)CCN1C(=O)/C=C/CN1CCSCC1 [Compound 171] | 108 µg/mL (≈ 149 µM) | 3.3 | < 10 nM | < 10 nM
12 | C[C@@H]1CN(C/C=C/C(=O)N2CCN(c3nc(OC[C@@]45CCCN4C[C@H](F)C5)nc4c(F)c(-c5cccc6cccc(Cl)c56)ncc34)C[C@@H]2CC#N)C[C@H](C)O1 [Compound 186] | 89 µg/mL (≈ 115 µM) | 3.54 | 10 to 100 nM | 10 to 100 nM
13 | C[C@H]1CN(C/C=C/C(=O)N2CCN(c3nc(OC[C@@]45CCCN4C[C@H](F)C5)nc4c(F)c(-c5cccc6cccc(Cl)c56)ncc34)C[C@@H]2CC#N)C[C@H](C)O1 [Compound 188] | 79.1 µg/mL (≈ 103 µM) | 3.86 | < 10 nM | < 10 nM
14 | N#CC[C@H]1CN(c2nc(OC[C@@]34CCCN3C[C@H](F)C4)nc3c(F)c(-c4cccc5cccc(Cl)c45)ncc23)CCN1C(=O)/C=C/CN1C2COCC1C2 [Compound 189] | 109 µg/mL (≈ 144 µM) | 2.96 | < 10 nM | < 10 nM
15 | CO[C@@H]1CCN(C/C=C/C(=O)N2CCN(c3nc(OC[C@@]45CCCN4C[C@H](F)C5)nc4c(F)c(-c5cccc6cccc(Cl)c56)ncc34)C[C@@H]2CC#N)C1 [Compound 191] | 94.9 µg/mL (≈ 125 µM) | 3.18 | < 10 nM | < 10 nM

The next lines start with the values.

Row | solubility kinetic at 2 h [1] | logD [2] | IC50 [3] | IC50 [4] | SMILES
16 | 0.01 µg/mL (≈ 0.0138 µM) | 4.46 | < 10 nM | < 10 nM | Cc1nccc(/C=C/C(=O)N2CCN(c3nc(OC[C@@]45CCCN4C[C@H](F)C5)nc4c3CCN(c3cccc5cccc(Cl)c35)C4)C[C@@H]2CC#N)n1 [Compound 123]
17 | 0.01 µg/mL (≈ 0.0137 µM) | 4.77 | < 10 nM | < 10 nM | Cc1nsc(/C=C/C(=O)N2CCN(c3nc(OC[C@@]45CCCN4C[C@H](F)C5)nc4c3CCN(c3cccc5cccc(Cl)c35)C4)C[C@@H]2CC#N)n1 [Compound 127]
18 | 0.01 µg/mL (≈ 0.0135 µM) | 3.9 | < 10 nM | < 10 nM | Cc1nsc(/C=C/C(=O)N2CCN(c3nc(OC[C@@]45CCCN4C[C@H](F)C5)nc4c(F)c(-c5cccc6cccc(Cl)c56)ncc34)C[C@@H]2CC#N)n1 [Compound 138]
19 | 107 µg/mL (≈ 150 µM) | 1.93 | < 10 nM | 10 to 100 nM | Cc1nccc(/C=C/C(=O)N2CCN(c3nc(OCC45CCCN4CCC5)nc4c(F)c(-c5cccc6cccc(Cl)c56)ncc34)C[C@@H]2CC#N)n1 [Compound 139]
20 | 1.86 µg/mL (≈ 2.53 µM) | 3.45 | < 10 nM | < 10 nM | Cc1nccc(/C=C/C(=O)N2CCN(c3nc(OC[C@@]45CCCN4C[C@H](F)C5)nc4c(F)c(-c5cccc6cccc(Cl)c56)ncc34)C[C@@H]2CC#N)n1 [Compound 140]
21 | 84 µg/mL (≈ 115 µM) | 3.43 | < 10 nM | < 10 nM | Cc1nsc(/C=C/C(=O)N2CCN(c3nc(OCC45CCCN4CCC5)nc4c3CCN(c3cccc5ccc(F)c(Cl)c35)C4)C[C@@H]2CC#N)n1 [Compound 141]
22 | 83.8 µg/mL (≈ 111 µM) | 2.25 | < 10 nM | < 10 nM | Cc1nccc(/C=C/C(=O)N2CCN(c3nc(OC[C@@]45CCCN4C[C@H](F)C5)nc4c(F)c(-c5nc(N)cc6cccc(Cl)c56)ncc34)C[C@@H]2CC#N)n1 [Compound 148]
23 | 0.41 µg/mL (≈ 0.536 µM) | 3.71 | < 10 nM | < 10 nM | CC(C)c1nccc(/C=C/C(=O)N2CCN(c3nc(OC[C@@]45CCCN4C[C@H](F)C5)nc4c(F)c(-c5cccc6cccc(Cl)c56)ncc34)C[C@@H]2CC#N)n1 [Compound 151]
24 | 84 µg/mL (≈ 109 µM) | 3.61 | < 10 nM | < 10 nM | C[C@@H]1CN(C/C=C/C(=O)N2CCN(c3nc(OC[C@@]45CCCN4C[C@H](F)C5)nc4c(F)c(-c5cccc6cccc(Cl)c56)ncc34)C[C@@H]2CC#N)C[C@@H](C)O1 [Compound 187]
25 | 94.7 µg/mL (≈ 125 µM) | 2.86 | < 10 nM | < 10 nM | CO[C@H]1CCN(C/C=C/C(=O)N2CCN(c3nc(OC[C@@]45CCCN4C[C@H](F)C5)nc4c(F)c(-c5cccc6cccc(Cl)c56)ncc34)C[C@@H]2CC#N)C1 [Compound 190]
